Assay type in all cases: cell-based
Test [1] has as its target T1, M1 muscarinic receptor (Homo sapiens, UniProt P11229).
T1 construct: expressed in transfected cells
T1 sequence (P11229 1-460): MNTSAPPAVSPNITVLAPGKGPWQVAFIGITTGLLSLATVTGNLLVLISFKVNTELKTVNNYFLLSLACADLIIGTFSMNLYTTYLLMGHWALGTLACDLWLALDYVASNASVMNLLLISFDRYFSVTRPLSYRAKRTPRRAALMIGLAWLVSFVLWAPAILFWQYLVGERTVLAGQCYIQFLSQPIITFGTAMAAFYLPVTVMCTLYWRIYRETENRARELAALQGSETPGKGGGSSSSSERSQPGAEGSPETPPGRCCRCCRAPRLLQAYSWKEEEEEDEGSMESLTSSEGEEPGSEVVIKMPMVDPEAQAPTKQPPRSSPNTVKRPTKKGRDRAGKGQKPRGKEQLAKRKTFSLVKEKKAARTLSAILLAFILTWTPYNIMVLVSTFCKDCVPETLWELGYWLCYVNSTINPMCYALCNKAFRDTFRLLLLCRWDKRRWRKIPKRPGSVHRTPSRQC
Description: Receptor Selection and Amplification (R-SAT) assay, cloned M1 receptor. Also on record: M1 Eff: scale not given here. The note with it: for Emax: read-out: m1 % Efficacy. From the text: (§1) The EC50 for an agonist is intended to denote the concentration of a compound needed to achieve 50% of a maximal response seen in an in vitro assay such as R-SAT. For inverse agonists, EC50 is intended to denote the concentration of a compound needed to achieve 50% inhibition of an R-SAT response from basal, no compound, levels.
(§2) A particularly convenient functional assay system is the receptor selection and amplification assay (R-SAT assay) in U.S. Pat. No. 5,707,798, which describes a method of screening for bioactive compounds by utilizing the ability of cells transfected with receptor DNA, e.g., coding for the different muscarinic subtypes, to amplify in the presence of a ligand of the receptor. Cell amplification is detected as increased levels of a marker also expressed by the cells.
(§3) Receptor Selection and Amplification (R-SAT) assays were carried out using the cloned M1-M5 receptors essentially as described in: Brauner-Osborne H, Brann M R. Pharmacology of muscarinic acetylcholine receptor subtypes (m1-m5): high throughput assays in mammalian cells. Eur J Pharmacol Jan. 4, 1996;295(1):93-102, and Spalding T A, Trotter C, Skjaerbaek N, Messier T L, Currier E A, Burstein E S, Li D, Hacksell U, Brann M R. Discovery of an ectopic activation site on the M(1) muscarinic receptor. Mol Pharmacol. 2002 June;61(6):1297-302.

The target in test [2] is T2, M4 muscarinic receptor (Homo sapiens, UniProt P08173).
T2 construct: expressed in transfected cells
T2 sequence (P08173 1-479): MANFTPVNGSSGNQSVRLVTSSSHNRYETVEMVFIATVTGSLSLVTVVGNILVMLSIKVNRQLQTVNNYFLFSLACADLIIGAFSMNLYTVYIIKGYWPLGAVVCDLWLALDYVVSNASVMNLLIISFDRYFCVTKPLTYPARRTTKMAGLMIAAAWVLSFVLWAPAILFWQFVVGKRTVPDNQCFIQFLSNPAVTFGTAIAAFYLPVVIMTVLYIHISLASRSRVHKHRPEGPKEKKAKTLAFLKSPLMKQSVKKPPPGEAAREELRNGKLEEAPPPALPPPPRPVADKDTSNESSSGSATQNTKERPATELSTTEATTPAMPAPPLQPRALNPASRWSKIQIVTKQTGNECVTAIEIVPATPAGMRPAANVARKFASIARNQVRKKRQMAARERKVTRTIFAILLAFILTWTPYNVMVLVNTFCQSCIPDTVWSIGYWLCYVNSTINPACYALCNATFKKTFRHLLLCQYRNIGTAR
Nature of the test: Receptor Selection and Amplification (R-SAT) assay, cloned M4 receptor. The note with it: R-SAT, cloned m4 receptor; for Emax: read-out: m4 % Efficacy; for EC50: read-out: m4 pEC50 (converted).
Source text: as §1, §2, §3

In test [3] the target is T3, M2 muscarinic receptor (Homo sapiens, UniProt P08172).
T3 construct: expressed in transfected cells
T3 sequence (P08172 1-466): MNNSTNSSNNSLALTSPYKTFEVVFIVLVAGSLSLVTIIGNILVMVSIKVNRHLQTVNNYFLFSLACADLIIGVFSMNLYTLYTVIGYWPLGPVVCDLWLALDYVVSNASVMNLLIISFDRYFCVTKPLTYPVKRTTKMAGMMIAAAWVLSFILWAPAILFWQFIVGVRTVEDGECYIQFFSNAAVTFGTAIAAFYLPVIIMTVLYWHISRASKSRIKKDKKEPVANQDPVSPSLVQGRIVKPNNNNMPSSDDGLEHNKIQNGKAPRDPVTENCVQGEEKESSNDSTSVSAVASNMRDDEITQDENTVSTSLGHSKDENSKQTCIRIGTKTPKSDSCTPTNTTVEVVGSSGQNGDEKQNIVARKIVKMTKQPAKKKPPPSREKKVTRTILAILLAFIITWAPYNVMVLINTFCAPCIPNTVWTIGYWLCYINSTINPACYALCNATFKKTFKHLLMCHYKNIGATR
Nature of the test: Receptor Selection and Amplification (R-SAT) assay, cloned M2 receptor. Also on record: M2 Eff: scale not given here. Conditions: for Emax: read-out: m2 % Efficacy.
Source text: as §1, §2, §3

The mark [4] stands for this setting: R-SAT, cloned m1 receptor, read-out: m1 pEC50 (converted).
The mark [5] stands for this setting: R-SAT, cloned m2 receptor, read-out: m2 pEC50 (converted).
The mark [6] stands for this setting: R-SAT, second table (COMPOUND ID series).
The mark [7] stands for this setting: R-SAT, second table (COMPOUND ID series), read-out: M1 pEC50 (converted).
Setting [8] is: R-SAT, second table (COMPOUND ID series), read-out: M2 pEC50 (converted).
[9] abbreviates: M1 pEC50, R-SAT, second table (COMPOUND ID series).
[10] abbreviates: M2 pEC50, R-SAT, second table (COMPOUND ID series).

SMILES strings stand for the structures. Read-outs that look alike come from different tables or passages of the source.

In the case of `CCCCC1CCN(CCCN2c3ccccc3CCC2C)CC1` (stereo not shown) [Compound 55-LH-28-8, 1-[3-(4-Butyl-piperidin-1-yl)-propyl]-2-methyl-1,2,3,4-tetrahydro-quinoline], the Emax turned out to be 45% in test [1] (R-SAT, cloned m1 receptor); 64% in test [2]; 67% in test [3] (R-SAT, cloned m2 receptor). Further, the EC50 in test [1] (setting [4]) is 0.2 µM; in test [2], > 3.16 µM; in test [3] (setting [5]), > 3.16 µM.

As for `CCCCC1CCN(CCCN2CCCc3cc(C)ccc32)CC1` [Compound 55LH44-A, 1-[3-(4-Butyl-piperidin-1-yl)-propyl]-6-methyl-1,2,3,4-tetrahydro-quinoline], the Emax is 54% in test [1] (R-SAT, cloned m1 receptor) and 28% in test [2]. Besides, the EC50 is 0.316 µM in test [1] (setting [4]) and > 3.16 µM in test [2].

With `CCCCC1CCN(CCCN2CCCc3ccccc32)CC1` [Compound 55-LH-12-2, 1-[3-(4-Butyl-piperidin-1-yl)-propyl]-1,2,3,4-tetrahydro-quinoline], the Emax in test [1] (R-SAT, cloned m1 receptor) worked out at 72%; in test [2] it was 68%; in test [3] (R-SAT, cloned m2 receptor), 35%. Moreover, the EC50 in test [1] (setting [4]) was 0.0501 µM; in test [2], 1 µM; in test [3] (setting [5]), 0.631 µM.

Consider `O=C1COc2ccc(F)cc2N1CCCN1CCC(OCC2CC2)CC1` [Compound 00262635, 4-[3-(4-Cyclopropylmethoxypiperidin-1-yl)propyl]-6-fluoro-4H-benzo[1.4]oxazin-3-one], for which the “M1 Eff” value in test [1] (setting [6]) was 96. Also, the EC50 is 0.0631 µM in test [1] (setting [7]) and 0.794 µM in test [3] (setting [8]). In addition, in test [3] (setting [6]), the “M2 Eff” value is 53.

For the compound `CCCC=C1CC2CCC(C1)N2CCCN1C(=O)COc2ccccc21` [Compound 81MF24, 4-[3-(3-Butylidene-8-aza-bicyclo[3.2.1]oct-8-yl)-propyl]-4H-benzo[1,4]oxazin-3-one], the EC50 is 0.0158 µM in test [1] (m1 pEC50, R-SAT, cloned m1 receptor) and 0.1 µM in test [3] (m2 pEC50, R-SAT, cloned m2 receptor). Further, the Emax in test [1] was 96%; in test [3], 70%.

With `O=C1CCc2cc(F)c(F)cc2N1CCCN1[C@@H]2CC[C@H]1C[C@@H](OCC1CC1)C2` [Compound 00262572, 1-[3-(3a-Cyclopropylmethoxy-8-aza-bicyclo[3.2.1]oct-8-yl)propyl]-6,7-difluoro-3,4-dihydro-1H-quinolin-2-one], the values for the EC50 in test [1] (setting [9]) and in test [3] (setting [10]) were 0.01 µM and 0.2 µM, respectively. Besides, the “M1 Eff” value in test [1] (setting [6]) turned out to be 82. For the same compound, the “M2 Eff” value in test [3] (setting [6]) was determined as 31.

Consider `CCCCC1CCN(CCCN2c3cc(F)ccc3CCC2C)CC1` (stereo not shown) [Compound 77LH02-1917, 1-[3-(4-Butyl-piperidin-1-yl)-propyl]-7-fluoro-2-methyl-1,2,3,4-tetrahydro-quinoline], for which the Emax in test [1] (R-SAT, cloned m1 receptor) came to 55%; in test [2], 37%. The EC50 in test [1] (setting [4]) was 0.2 µM; in test [2] it was > 3.16 µM.

With `COC(CN1CCC(OCC2CC2)CC1)CN1C(=O)COc2cc(F)ccc21` (racemic) [Compound 00262784, (R,S)-4-[3-(4-Cyclopropylmethoxypiperidin-1-yl)-2-methoxypropyl]-7-fluoro-4H-benzo[1.4]oxazin-3-one], the “M1 Eff” value in test [1] (setting [6]) was 94. Besides, the EC50 in test [1] (setting [7]) is 0.0794 µM; in test [3] (setting [8]), 2 µM. Moreover, the “M2 Eff” value in test [3] (setting [6]) came to 71.

As for `O=C1COc2cc(F)c(F)cc2N1CCCN1CCC(OCC2CC2)CC1` [Compound 00262461, 4-[3-(4-Cyclopropylmethoxypiperidin-1-yl)propyl]-6,7-difluoro-4H-benzo[1.4]oxazin-3-one], the “M1 Eff” value in test [1] (setting [6]) came to 95. The EC50 was 0.0501 µM in test [1] (setting [7]) and 0.631 µM in test [3] (setting [8]). The “M2 Eff” value in test [3] (setting [6]) is on record as 61.

For `CCCC[C@]1(O)C[C@H]2CC[C@@H](C1)N2C[C@@H](C)CN1C(=O)COc2ccccc21` [Compound 00261478, (R)-4-[3-(3β-Butyl-3a-hydroxy-8-aza-bicyclo[3.2.1]oct-8-yl)-2-methyl-propyl]-1H-benzo[1,4]oxazin-3-one], the “M1 Eff” value in test [1] (setting [6]) worked out at 105. For the same compound, the EC50 in test [1] (setting [7]) is 1.58 µM; in test [3] (setting [8]) it was 1.26 µM. Besides, the “M2 Eff” value in test [3] (setting [6]) is on record as 40.

For `CCc1cccc2c1OCC(=O)N2CC(C)CN1CCC(OCC2CC2)CC1` (racemic) [Compound 00262867, (R,S)-4-[3-(4-Cyclopropylmethoxypiperidin-1-yl)-2-methylpropyl]-8-ethyl-4H-benzo[1,4]oxazin-3-one], in test [1] (setting [6]), the “M1 Eff” value came out at 104. Further, the results for the EC50 in test [1] (setting [7]) and in test [3] (setting [8]) were 0.0794 µM and 1.58 µM, respectively. Further, in test [3] (setting [6]), the “M2 Eff” value was 32.

Turning to `O=C1COc2cc(F)ccc2N1CCCN1[C@@H]2CC[C@H]1C[C@@H](OCC1CC1)C2` [Compound 00262571, 4-[3-(3a-Cyclopropylmethoxy-8-azabicyclo[3.2.1]oct-8-yl)propyl]-7-fluoro-4H-benzo[1.4]oxazin-3-one], the results for the EC50 in test [1] (setting [9]) and in test [3] (setting [10]) were 0.0126 µM and 0.0398 µM, respectively. In test [1] (setting [6]), the “M1 Eff” value is 81. For the same compound, the “M2 Eff” value in test [3] (setting [6]) turned out to be 45.

`O=C1CCc2cc(F)c(F)cc2N1CCCN1CCC(OCC2CC2)CC1` [Compound 00262272, 1-[3-(4-Cyclopropylmethoxypiperidin-1-yl)propyl]-6,7-difluoro-3,4-dihydro-1H-quinolin-2-one]: in test [1] (setting [6]), the “M1 Eff” value is reported as 94. Moreover, the EC50 in test [1] (setting [7]) was 0.0501 µM; in test [3] (setting [8]), 1 µM. The “M2 Eff” value in test [3] (setting [6]) is 57.

As to `O=C1COc2cc(F)c(F)cc2N1CCCN1[C@@H]2CC[C@H]1C[C@@H](OCC1CC1)C2` [Compound 00262569, 4-[3-(3a-Cyclopropylmethoxy-8-azabicyclo[3.2.1]oct-8-yl)propyl]-6.7-difluoro-4H-benzo[1.4]oxazin-3-one], the EC50 is 0.00631 µM in test [1] (setting [9]) and 0.0501 µM in test [3] (setting [10]). For the same compound, the “M1 Eff” value in test [1] (setting [6]) is on record as 97. Moreover, the “M2 Eff” value in test [3] (setting [6]) was 42.

As to `O=C1COc2cc(F)ccc2N1CCCN1CCC(OCC2CC2)CC1` [Compound 00262469, 4-[3-(4-Cyclopropylmethoxypiperidin-1-yl)propyl]-7-fluoro-4H-benzo[1,4]oxazin-3-one], in test [1] (setting [6]), the “M1 Eff” value is given as 98. Moreover, the figures for the EC50 in test [1] (setting [7]) and in test [3] (setting [8]) were 0.0631 µM and 0.501 µM, respectively. Moreover, the “M2 Eff” value in test [3] (setting [6]) amounted to 73.

These data come from patent US7550459B2, “Tetrahydroquinoline analogues as muscarinic agonists” (Acadia Pharmaceuticals, Inc., priority 2001, dated 2009).
